Test results as given in patent US8440638B2, “Compositions and methods for modulating calcium flux, glucose homeostasis and apoptosis” (Wisconsin Alumni Research Foundation, priority 2004, dated 2013).

Legend:
[1] = test system: TRPM2-expressing HEK-293 cells; assay: Cell viability assay (calcein fluorescence), tet-inducible TRPM2 HEK-293 cells; format: cell-based
Method: Shown are HEK-293 cells (closed diamond) and HEK-293 cells stably transfected with a tet-controlled TRPM2 construct in the presence (open squares) or absence of (open diamonds) tetracycline. […] TRPM2-expressing HEK-293 cells were grown in complete DMEM media and 1 μg/ml tetracycline until 80-90% confluent. One set of cells were re-fed with the same complete media (closed diamonds) and the other set of cells were rinsed with PBS and fed with modified media containing 1 μg/ml tetracycline, 5 mM EGTA and without calcium chloride (open squares). […] HEK-293 (close diamond) and TRPM2 expressing HEK-293 cells in the absence (open diamond) or presence of (closed square) tetracycline were exposed to 0-10 μg/ml cycloheximide for 16 h. Cell viability was determined as described in (a).
TRPM2-expressing HEK-293 cells were exposed to 0-50 μM puromycin for 16 h in the presence (open diamond) or absence (closed diamond) of 500 μM nicotinamide. […] TRPM2-expressing HEK-293 cells were exposed to 0-50 μM puromycin for 16 h in the presence (open diamond) or absence (closed diamond) of 1.5 mM 3-aminobenzamide. Cell survival was determined as described in (a).
HEK-293 and tetracycline (tet)-inducible HEK-293 TRPM2-expressing cells (23) were cultured in DMEM and 10% FBS at 37° C., 5% CO2. Media used to culture tet-inducible HEK-293 cells was supplemented with blasticidin (5 μg ml^−1; Invitrogen) and zeocin (0.4 mg/ml; Invitrogen). To induce expression of TRPM2 in recombinant HEK-293 cells, tetracycline was added to the media at 1 μg ml^−1 (Invitrogen) 24 h prior to experiments. The CRI-G1 rat β-islet tumor cell line was obtained from EACC and cultured in DMEM, 10% FBS and 2 mM glutamine.
HEK-293, tet-inducible HEK-293, and CRI-G1 cells were seeded into 6 well plates at a density of 500,000 cells per well. When cells were 50-70% confluent, puromycin was added to the media at various concentrations for 16 hours. Cell monolayers were rinsed with PBS, after which 0.5 ml of 2 μM calcein in PBS was added directly to the well for 10-20 minutes. Calcein is retained in living, but not dead cells, where it undergoes catalytic conversion into a fluorescent compound Fluorescence in each well was measured in a microplate reader using excitation and emission filters at 485/530 nm, respectively.

[2] = test system: insulin-producing β-cells; details: prophylactic treatment; alloxan and streptozotocin models (ref. 48); cited from earlier work
[3] = test system: CRI-G1 cells; assay: Cell viability assay (calcein fluorescence), CRI-G1 cells; format: cell-based, rat; details: 0.5-20 mM nicotinamide, 20 μM puromycin, 16 h
Method: FIG. 4 a) OAADPr gates the endogenous TRPM2 channel in CRI-G1 cells. Left panel: Evolution of currents in CRI-G1 cells in the absence (grey squares) or presence (black circles) of OAADPr (120-250 μM). Shown are average leak subtracted currents from n=3 cells for each condition. Right panel: Representative leak subtracted whole cell I/V curves for peak currents observed in the absence (grey line) and presence (black line) of OAADPr. For the above measurements, CRI-G1 cells were maintained in the whole cell patch clamp configuration as previously described for HEK-293 cells (44). b) Puromycin leads to cell death in CRI-G1 cells. CRI-G1 cells were treated with 0-40 μM puromycin for 16 h. Cell viability was assessed by measuring fluorescence of calcein in live cells. Data obtained from 4 independent experiments were plotted as a percent change in fluorescence compared to those of untreated cells set at a 100%. Error bars indicate the standard deviation from the mean. (Inset) Nicotinamide rescues puromycin-induced death in CRI-G1 cells. […] Cell viability was assessed 16 h later as described above. […] Calcein is retained in living, but not dead cells, where it undergoes catalytic conversion into a fluorescent compound Fluorescence in each well was measured in a microplate reader using excitation and emission filters at 485/530 nm, respectively.

[4] = test system: Sir2 homologs; assay: NAD+-dependent histone deacetylase activity of HEK-293 protein extracts; format: biochemical; details: data not shown
[5] = target: T1, endogenous TRPM2 channel (Rattus norvegicus, UniProt E9PTA2); assay: Whole cell patch clamp, endogenous TRPM2 channel in CRI-G1 cells; format: cell-based; details: OAADPr 120-250 μM in patch pipette, n=3 cells
T1 construct: direct OAADPr-mediated gating of endogenous TRPM2 channels in CRI-G1 cells; endogenous in cells; host or cells: CRI-G1 rat beta-islet tumor cell line
Method: FIG. 4 a) OAADPr gates the endogenous TRPM2 channel in CRI-G1 cells. Left panel: Evolution of currents in CRI-G1 cells in the absence (grey squares) or presence (black circles) of OAADPr (120-250 μM). Shown are average leak subtracted currents from n=3 cells for each condition. Right panel: Representative leak subtracted whole cell I/V curves for peak currents observed in the absence (grey line) and presence (black line) of OAADPr. For the above measurements, CRI-G1 cells were maintained in the whole cell patch clamp configuration as previously described for HEK-293 cells (44). b) Puromycin leads to cell death in CRI-G1 cells. CRI-G1 cells were treated with 0-40 μM puromycin for 16 h. Cell viability was assessed by measuring fluorescence of calcein in live cells. Data obtained from 4 independent experiments were plotted as a percent change in fluorescence compared to those of untreated cells set at a 100%. Error bars indicate the standard deviation from the mean. […] Cell viability was assessed 16 h later as described above. […]
Patch clamp electrophysiology was performed as previously described (23). […] Currents were recorded on an EPC9 patch clamp amplifier with automatic capacitance compensation using a protocol generating a 50 msec voltage ramp from −100 to +100 mv every two seconds at a holding potential of 0 mv (appropriately corrected for liquid junction potential). […]

[6] = Spontaneous breakdown of OAADPr in the patch pipette; format: physicochemical; details: multiple experiments
Method: (§1) Patch clamp electrophysiology was performed as previously described (23). Briefly, cells were patch clamped in the whole cell configuration at 25° C. using pipettes with resistances ranging from 2-3 MOhms. Currents were recorded on an EPC9 patch clamp amplifier with automatic capacitance compensation using a protocol generating a 50 msec voltage ramp from −100 to +100 mv every two seconds at a holding potential of 0 mv (appropriately corrected for liquid junction potential). Bath solution included 150 mM NaCl, 2.8 mM KCl, 5 mM CsCl, 1 mM CaCl2, 2 mM MgCl2, and 10 mM Hepes (pH 7.2). Pipette solution included 135 mM CsGlutamate, 1 mM MgCl2, 8 mM NaCl, 10 mM Hepes (pH 7.2), and 10 mM EGTA. For low-resolution presentation of current development over the course of the experiment, instantaneous currents at −80 mv were extracted from each ramp and plotted versus time.

[7] = target: T2, TRPM2 channel (Homo sapiens, UniProt O94759); assay: Whole cell patch clamp, TRPM2 channel gating in tet-induced TRPM2-expressing HEK-293 cells; format: cell-based; details: OAADPr in patch pipette solution; similar kinetics and dose dependence to ADP-ribose
T2 construct: expressed in transfected cells; host or cells: tetracycline-inducible HEK-293
Method: Shown is the development of whole cell currents over time in TRPM2-expressing HEK-293 cells. Bath solution was standard ringer's, and pipette solution was Cs-based and included 10 mM EGTA to buffer intracellular Ca^2+ to 10 nM. The patch pipette contained various concentrations of (FIG. 1a) ADPr, (FIG. 1b) OAADPr (FIG. 1c) OAADPr and puromycin as indicated in the figure. FIG. 1d.) Cytoplasmic OAADPr esterase activity is inhibited by puromycin. 200 μM O-[^3H]AADPr and 0-100 μM puromycin were added to cytoplasmic HEK-293 extract for 30 min. Percent hydrolysis of O-[^3H]AADPr to [^3H]acetate was measured as described hereinbelow. FIG. 1e.) Nuclear OAADPr acetyltransferase activity is not inhibited by puromycin. HEK-293 nuclear extract was incubated with 200 μM O-[^3H]AADPr in the presence or absence of 100 μM puromycin for 60 min. The reactions were quenched and resolved by HPLC. The radioactivity in collected fractions was determined by liquid scintillation counting. FIGS. 1f-g.) In vivo detection of OAADPr. Mass spectrum of HEK-293 generated OAADPr (peak m/z of 602.0894; the theoretical m/z for OAADPr is 602.0895) after puromycin treatment, with authentic [^13C]-OAADPr (peak m/z of 603.0851 and isotopic distribution of 604.0878 and 605.0928) as a standard. Peak 599.3691 is from the matrix.
as §1, with “For low-resolution presentation of current development over the course of the experiment, instantaneous currents at −80 mv were extracted from each ramp and plotted versus time.” left out

T2 sequence (O94759 whole entry): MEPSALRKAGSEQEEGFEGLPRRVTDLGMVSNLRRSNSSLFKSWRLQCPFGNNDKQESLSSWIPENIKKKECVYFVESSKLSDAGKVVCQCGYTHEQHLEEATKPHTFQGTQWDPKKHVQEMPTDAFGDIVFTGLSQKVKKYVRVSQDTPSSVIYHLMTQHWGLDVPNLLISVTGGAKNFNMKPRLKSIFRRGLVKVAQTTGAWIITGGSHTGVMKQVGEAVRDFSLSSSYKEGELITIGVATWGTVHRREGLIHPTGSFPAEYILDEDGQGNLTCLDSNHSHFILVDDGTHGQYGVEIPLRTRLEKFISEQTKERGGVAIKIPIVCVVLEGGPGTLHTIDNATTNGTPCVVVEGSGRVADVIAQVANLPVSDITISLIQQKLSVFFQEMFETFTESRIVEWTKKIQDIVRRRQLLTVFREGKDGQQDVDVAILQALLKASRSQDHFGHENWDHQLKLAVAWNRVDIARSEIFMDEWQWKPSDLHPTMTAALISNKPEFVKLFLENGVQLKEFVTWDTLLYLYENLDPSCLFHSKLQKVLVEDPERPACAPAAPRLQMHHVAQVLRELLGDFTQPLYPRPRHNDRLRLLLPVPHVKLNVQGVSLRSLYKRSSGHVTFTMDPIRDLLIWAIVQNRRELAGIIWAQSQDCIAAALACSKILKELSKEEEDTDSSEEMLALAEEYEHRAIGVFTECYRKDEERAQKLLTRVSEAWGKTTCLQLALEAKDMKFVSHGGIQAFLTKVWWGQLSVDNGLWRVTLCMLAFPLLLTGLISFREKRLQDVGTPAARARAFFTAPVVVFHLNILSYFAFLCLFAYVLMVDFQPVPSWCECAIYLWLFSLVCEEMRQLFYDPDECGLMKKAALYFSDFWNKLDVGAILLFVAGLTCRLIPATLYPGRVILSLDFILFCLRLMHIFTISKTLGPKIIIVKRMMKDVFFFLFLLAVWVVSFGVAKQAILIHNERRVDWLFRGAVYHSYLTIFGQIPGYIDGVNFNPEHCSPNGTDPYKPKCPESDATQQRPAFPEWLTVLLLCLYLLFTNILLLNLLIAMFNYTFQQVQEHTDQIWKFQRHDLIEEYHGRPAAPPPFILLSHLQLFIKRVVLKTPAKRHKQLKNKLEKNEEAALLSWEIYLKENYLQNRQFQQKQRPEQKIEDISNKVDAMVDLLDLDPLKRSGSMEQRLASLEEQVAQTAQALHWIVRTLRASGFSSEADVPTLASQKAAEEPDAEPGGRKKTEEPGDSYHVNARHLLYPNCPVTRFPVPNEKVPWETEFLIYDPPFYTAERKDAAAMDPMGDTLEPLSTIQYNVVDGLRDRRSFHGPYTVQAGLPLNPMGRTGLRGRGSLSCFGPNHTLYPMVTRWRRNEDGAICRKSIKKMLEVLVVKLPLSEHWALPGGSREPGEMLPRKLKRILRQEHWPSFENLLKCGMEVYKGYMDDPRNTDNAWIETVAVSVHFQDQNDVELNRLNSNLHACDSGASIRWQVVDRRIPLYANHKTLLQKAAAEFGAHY
T1 sequence (E9PTA2 whole entry): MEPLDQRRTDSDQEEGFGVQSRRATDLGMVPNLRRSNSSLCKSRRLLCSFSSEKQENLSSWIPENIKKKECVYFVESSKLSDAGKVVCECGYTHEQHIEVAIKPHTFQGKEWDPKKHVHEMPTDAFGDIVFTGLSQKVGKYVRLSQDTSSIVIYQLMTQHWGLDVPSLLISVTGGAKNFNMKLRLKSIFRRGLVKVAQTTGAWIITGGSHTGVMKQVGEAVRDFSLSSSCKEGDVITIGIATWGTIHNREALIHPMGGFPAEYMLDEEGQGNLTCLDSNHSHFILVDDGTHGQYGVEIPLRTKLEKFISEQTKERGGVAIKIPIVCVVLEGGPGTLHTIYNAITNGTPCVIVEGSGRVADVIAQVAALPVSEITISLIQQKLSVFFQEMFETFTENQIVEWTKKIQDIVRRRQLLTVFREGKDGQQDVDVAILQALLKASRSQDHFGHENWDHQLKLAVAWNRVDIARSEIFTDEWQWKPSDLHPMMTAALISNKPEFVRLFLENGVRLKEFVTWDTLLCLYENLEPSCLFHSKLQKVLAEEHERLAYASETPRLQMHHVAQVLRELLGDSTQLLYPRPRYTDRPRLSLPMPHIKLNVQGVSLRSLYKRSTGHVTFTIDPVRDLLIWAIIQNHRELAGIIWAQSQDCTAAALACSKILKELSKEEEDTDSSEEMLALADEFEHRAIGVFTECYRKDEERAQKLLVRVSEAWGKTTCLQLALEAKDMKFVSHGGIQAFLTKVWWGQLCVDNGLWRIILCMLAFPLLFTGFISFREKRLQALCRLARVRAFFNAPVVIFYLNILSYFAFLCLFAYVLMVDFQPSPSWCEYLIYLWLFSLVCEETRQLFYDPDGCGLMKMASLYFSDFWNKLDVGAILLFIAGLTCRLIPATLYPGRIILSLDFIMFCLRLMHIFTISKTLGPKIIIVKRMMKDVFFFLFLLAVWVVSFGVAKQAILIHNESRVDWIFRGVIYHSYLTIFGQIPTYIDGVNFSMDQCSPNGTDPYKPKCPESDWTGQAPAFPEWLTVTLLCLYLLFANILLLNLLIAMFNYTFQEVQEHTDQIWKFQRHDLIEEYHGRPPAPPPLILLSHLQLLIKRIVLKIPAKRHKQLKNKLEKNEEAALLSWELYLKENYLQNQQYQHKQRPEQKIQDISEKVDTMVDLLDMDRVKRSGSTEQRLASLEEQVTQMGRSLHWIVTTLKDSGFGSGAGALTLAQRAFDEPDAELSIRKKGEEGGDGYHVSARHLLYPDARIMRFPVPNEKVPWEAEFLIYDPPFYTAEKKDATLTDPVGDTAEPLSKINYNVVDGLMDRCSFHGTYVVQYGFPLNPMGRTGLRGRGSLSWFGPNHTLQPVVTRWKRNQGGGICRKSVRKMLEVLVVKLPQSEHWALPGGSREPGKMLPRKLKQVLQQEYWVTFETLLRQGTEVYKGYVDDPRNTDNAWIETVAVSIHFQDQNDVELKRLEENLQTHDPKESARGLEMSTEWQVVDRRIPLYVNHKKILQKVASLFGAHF

In the case of `NC(=O)c1cccc(N)c1` [3-aminobenzamide], the “effect on puromycin-induced cell death” value ([1]; 1.5 mM 3-aminobenzamide, 0-50 μM puromycin, 16 h) is reported as “no effect”.

For `C[C@@H]1C[C@@H]([C@H](O)CC2CC(=O)NC(=O)C2)C(=O)[C@@H](C)C1` [cycloheximide], the “sensitivity of TRPM2 expressing cells to cycloheximide vs cells not over-expressing the channel” value ([1]; 0-10 μg/ml cycloheximide, 16 h) was “no significant increased sensitivity”.

For `NC(=O)c1cccnc1` [nicotinamide], the development of diabetes [2] is given as “suppress the development of diabetes”, the “protection from puromycin-induced cell death at high puromycin” value ([1]; 500 μM nicotinamide, 50 μM puromycin) is given as “suppressed” and the “protection from puromycin-induced cell death” value ([1]; 500 μM nicotinamide, up to 20 μM puromycin, 16 h) is given as “completely protect”. The “effect on puromycin-induced death of CRI-G1 cells” value [3] was “blocked” and the “NAD+-dependent histone deacetylase activity of protein extracts” value [4] was “inhibited”.

For O-acetyl-ADP ribose [OAADPr], the average currents induced [5] was about 2 nA, the “spontaneous breakdown of OAADPr to ADPr in the patch pipette” value [6] was 5-10% and the “TRPM2 gating in whole cell recordings” value [7] was “induces TRPM2 gating”.
